Source: patent US20260184691A1, “INHIBITORS AND DEGRADERS OF PIP4K PROTEIN” (Larkspur Biosciences, Inc., priority 2022, published 2026)

molecular target: T1, Human PIP4K2C (Homo sapiens, UniProt Q8TBX8); test: Enzyme binding assay (KINOMEscan), active site-directed competition binding; conditions: 11-point dose response, duplicate, top concentration 5 micromolar; read-out: Pip4k2c Kd: IC50
T1 construct: purchased Eurofins DiscoverX 87-0007-1094
T1 sequence (Q8TBX8 1-421): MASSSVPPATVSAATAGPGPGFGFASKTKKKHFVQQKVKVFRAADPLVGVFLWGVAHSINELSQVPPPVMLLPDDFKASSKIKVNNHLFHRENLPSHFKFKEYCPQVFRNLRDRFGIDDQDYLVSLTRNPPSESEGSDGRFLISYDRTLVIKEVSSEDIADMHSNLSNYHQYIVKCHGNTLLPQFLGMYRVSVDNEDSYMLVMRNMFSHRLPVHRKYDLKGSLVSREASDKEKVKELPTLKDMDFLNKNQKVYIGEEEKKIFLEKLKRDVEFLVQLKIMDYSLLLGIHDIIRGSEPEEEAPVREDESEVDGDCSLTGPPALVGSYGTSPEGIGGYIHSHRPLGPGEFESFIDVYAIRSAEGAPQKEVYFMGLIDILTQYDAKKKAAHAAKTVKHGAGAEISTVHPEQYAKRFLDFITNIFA
Method: PIP4K2C binding constants disclosed herein were determined using the proprietary Human PIP4K2C binding assay (Catalog number 87-0007-1094, Eurofins DiscoverX, San Diego, CA). This assay measures active site-directed competition binding to an immobilized ligand (see https://doi.org/10.1038/nbt1068, herein incorporated by reference in its entirety). Experiments were conducted using an 11-point dose response curve, in duplicate, with a top starting concentration of 5 micromolar; the Levenberg-Marquardt algorithm was used to fit a Hill equation to dose-response data to calculate IC50 values (see Table 5).

IC50, < 500 nM:
O=C1CCCN1c1cncc(Nc2ncc(Cl)c(-c3cccc(Cl)c3)n2)c1 [Compound 92, 1-(5-((5-chloro-4-(3-chlorophenyl)pyrimidin-2-yl)amino)pyridin-3-yl)pyrrolidin-2-one]
CN1CCCC(c2cccc(-c3nc(Nc4cncc(N5CCCC5=O)c4)ncc3Cl)c2)C1 (stereo not drawn) [Compound 33, 1-(5-((5-chloro-4-(3-(1-methylpiperidin-3-yl)phenyl)pyrimidin-2-yl)amino)pyridin-3-yl)pyrrolidin-2-one]
O=C1CCCN1c1cncc(Nc2ncc(Cl)c(-c3ccc(F)cc3)n2)c1 [Compound 118, 1-(5-((5-chloro-4-(4-fluorophenyl)pyrimidin-2-yl)amino)pyridin-3-yl)pyrrolidin-2-one]
O=C1CCCN1c1cncc(Nc2ncc(Cl)c(C3CCCN(C4CC4)C3)n2)c1 (stereo not drawn) [Compound 149, 1-(5-((5-chloro-4-(1-cyclopropylpiperidin-3-yl)pyrimidin-2-yl)amino)pyridin-3-yl)pyrrolidin-2-one]
O=C1CCCN1c1cncc(Nc2ncc(Cl)c(-c3cccc(N4CCCCC4)c3)n2)c1 [Compound 38, 1-(5-((5-chloro-4-(3-(piperidin-1-yl)phenyl)pyrimidin-2-yl)amino)pyridin-3-yl)pyrrolidin-2-one]
CC(=O)N1CCCC(c2cccc(-c3nc(Nc4cncc(N5CCCC5=O)c4)ncc3Cl)c2)C1 (stereo not drawn) [Compound 34, 1-(5-((4-(3-(1-acetylpiperidin-3-yl)phenyl)-5-chloropyrimidin-2-yl)amino)pyridin-3-yl)pyrrolidin-2-one]
O=C1CCCN1c1cncc(Nc2ncc(Cl)c(N3CCC(c4ccccc4)C3)n2)c1 (stereo not drawn) [Compound 42, 1-(5-((5-chloro-4-(3-phenylpyrrolidin-1-yl)pyrimidin-2-yl)amino)pyridin-3-yl)pyrrolidin-2-one]
O=C1CCCN1c1cncc(Nc2ncc(Cl)c(-c3cccc(Oc4ccccc4)c3)n2)c1 [Compound 142, 1-(5-((5-chloro-4-(3-phenoxyphenyl)pyrimidin-2-yl)amino)pyridin-3-yl)pyrrolidin-2-one]
O=C1CCCN1c1cncc(Nc2ncc(Cl)c(-c3cccc(C4CCCNC4)c3)n2)c1 (stereo not drawn) [Compound 30, 1-(5-((5-chloro-4-(3-(piperidin-3-yl)phenyl)pyrimidin-2-yl)amino)pyridin-3-yl)pyrrolidin-2-one]
O=C1CCCN1c1cncc(Nc2ncc(Cl)c(C3CCCN(C4CCCC4)C3)n2)c1 (stereo not drawn) [Compound 135, 1-(5-((5-chloro-4-(1-cyclopentylpiperidin-3-yl)pyrimidin-2-yl)amino)pyridin-3-yl)pyrrolidin-2-one]
O=C1CCCN1c1cncc(Nc2ncc(Cl)c(-c3ccn(-c4ccccc4)n3)n2)c1 [Compound 143, 1-(5-((5-chloro-4-(1-phenyl-1H-pyrazol-3-yl)pyrimidin-2-yl)amino)pyridin-3-yl)pyrrolidine-2-one]
O=C1CCCN1c1cncc(Nc2ncc(Cl)c(-c3cc(Cl)cc(-c4ccccc4)c3)n2)c1 [Compound 22, 1-(5-((5-chloro-4-(5-chloro-[1,1′-biphenyl]-3-yl)pyrimidin-2-yl)amino)pyridin-3-yl)pyrrolidin-2-one]
O=C1CCCN1c1cncc(Nc2ncc(F)c(-c3ccc(=O)n(C4CCC4)c3)n2)c1 [Compound 157, 1-cyclobutyl-5-(5-fluoro-2-((5-(2-oxopyrrolidin-1-yl)pyridin-3-yl)amino)pyrimidin-4-yl)pyridin-2(1H)-one]
O=C1CCCN1c1cncc(Nc2ncc(Cl)c(N3CCCC(C4CCCC4)C3)n2)c1 (stereo not drawn) [Compound 131, 1-(5-((5-chloro-4-(3-cyclopentylpiperidin-1-yl)pyrimidin-2-yl)amino)pyridin-3-yl)pyrrolidin-2-one]
O=C1CCCN1c1cncc(Nc2ncc(Cl)c(N3CCOCC3)n2)c1 [Compound 107, 1-(5-((5-chloro-4-morpholinopyrimidin-2-yl)amino)pyridin-3-yl)pyrrolidin-2-one]
